Square brackets hold non-standard residues; d marks the D form. * marks the point of attachment. 2Nal = N[C@@H](Cc1ccc2ccccc2c1)C(=O)O; Propionyl = CCC(=O)*; Sar = CNCC(=O)O
Tests used:
Dog = assay: Maximum platelet elevation relative to baseline in normal healthy dogs, single escalating doses; type: in vivo; parameters: key to pharmacodynamics (PD) effect class of the dose (beneficial effects on survival): **: large pharmacodynamics (PD) effect; *: modest effect; conditions: for Dog Max Platelet Ratio: TOX6985; for maximum platelet elevation: canine
From the text: The ratio of the maximum platelet counts to the baseline platelet counts following single escalating doses of RWJ-800088 to mice, rats, dogs, rhesus monkeys and human healthy volunteers is shown in Table 5. The dose required to achieve a 2-3.5-fold elevation in humans is ˜100-fold lower compared to mice, ˜1,000-fold lower compared to rats and >10,000-fold lower compared to canines and NHPs. […] The species differences in potency has been described for other TPO mimetics in the literature and is attributed to differences in receptor affinity (Erickson-Miller C L, et al. Discovery and characterization of a selective, nonpeptidyl thrombopoietin receptor agonist. Exp. Hematol. 2005; 33:85-93). […] It is discovered that the dose of RWJ-800088 that produces a survival benefit and protects against vascular and organ injury is the dose that produces a 2-4 fold elevation of platelets (Table 6).

[1] = test system: dogs after whole body radiation at an LD50 exposure; assay: Dog pilot whole body irradiation study; type: in vivo; conditions: single 10 mg/kg dose 24 hours after whole body radiation at LD50
Method: A pilot radio-mitigation study was conducted in dogs with RWJ-800088.

[2] = test system: CD21F1 male mice exposed to TBI; assay: Dose reduction factor (DRF) and long-term survival study after TBI; type: in vivo, mouse
From the text: Methods: CD21F1 male mice were used in a DRF (dose reduction factor) study to determine LD50/30 for animals administered with RWJ-800088 or it's vehicle (saline). This included irradiating cohorts of 24 animals at various total body irradiation (TBI) doses (Saline: 7.5, 8.0, 8.5, 9.0, 9.5, and 10 Gy; RWJ-800088: 10.5, 11.0, 11.5, 11.75, 12, and 12.5 Gy). Following the 30 day survival study, surviving animals were monitored for up to 1 year with planned collection points at 6 months and 1 year.
RWJ-800088 administration timing and doses: RWJ-800088 was administered […] at a dose of 1 mg/kg 24 h prior to irradiation.

[3] = test system: Rats, prostate irradiation; assay: Prostate irradiation in rats (Table 6); type: in vivo, rat; conditions: 3 mg/kg, whole wrapped cell: Protection of vascular size and function
[4] = test system: rhesus monkeys after TBI gamma radiation (600 cGY); assay: Rhesus monkey whole body irradiation pilot PK/PD study; type: in vivo
Method: A pilot PK/PD study was performed to evaluate the efficacy of RWJ-800088 in rhesus monkeys (Study No. 2016-2693—CiToxLAB North America). Rhesus monkeys (n=10/group, 5 male/5 female) were treated with vehicle or RWJ-800088 (a single dose of 30 mg/kg RWJ-800088) administered 24 hours post TBI gamma radiation (600 cGY). […] The ratio of the maximum platelet count to baseline following escalating doses of RWJ-800088 to healthy rhesus monkeys is as follows: 0.97±0.06× at 0.5 mg/kg, 1.08±0.15× at 2 mg/kg, 1.98±0.16× at 10 mg/kg, 2.9±0.03× at 20 mg/kg, and 3.83±0.11× at 40 mg/kg).

[5] = Group 7, 10.5 Gy, 1 mg/kg 24 h prior to irradiation
[6] = Group 9, 11.5 Gy, 1 mg/kg 24 h prior to irradiation
[7] = Group 12, 12.5 Gy, 1 mg/kg 24 h prior to irradiation

## methoxypolyethyleneglycol20000-propionyl-L-Isoleucyl-L-Glutamyl-Glycyl-L-Prolyl-L-Threonyl-L-Leucyl-L-Arginyl-L-Glutaminyl-L-2-Naphthylalanyl-L-Leucyl-L-Alanyl-L-Alanyl-L-Arginyl-Sarcosyl-Ne-(methoxypolyethyleneglycol20000-propionyl-L-Isoleucyl-L-Glutamyl-Glycyl-L-Prolyl-L-Threonyl-L-Leucyl-L-Arginyl-L-Glutaminyl-L-2-Naphthylalanyl-L-Leucyl-L-Alanyl-L-Alanyl-L-Arginyl-Sarcosyl-)-Lysinamide ({mPEG 20 kDa-Propionyl}-IEGPTLRQ[2Nal]LAAR[Sar]K-NH2; also: dimer: second identical mPEG-propionyl chain on Lys Nε of C-terminal lysinamide) [RWJ-800088]
Dog; Dog, dose 10000 μg/kg
  Average of the Maximum Platelet Elevation/Baseline Platelet Counts: 1.7
  pharmacodynamics (PD) effect class of the dose (beneficial effects on survival): *
Dog; dose 300 μg/kg
  Dog Max Platelet Ratio: 1.0 ± 0.3
Dog; dose 3000 μg/kg
  Dog Max Platelet Ratio: 1.4 ± 0.5
Dog; dose 10000 μg/kg
  Dog Max Platelet Ratio: 1.7 ± 0.5
Dog
  maximum platelet elevation: ~7.7 fold
Dog; listed as TPOm
  maximum platelet elevation: ~1.7 fold
[1]
  Blood transfusions: 1.25/ /animal
  Days of febrile neutropenia: 1.08
  Diarrhea: 2/12
  Mean survival time: 36 days
  Mild to moderate necrohemorrhagic bronchioalveolar or minimal subacute bronchioalveolar inflammation: 6/12
  Mild to severe hematopoietic bone marrow hypocellularity: 6/12
  Mortality: 7/12
  Neutropenia nadir: 9e+07 L⁻¹
  Severe neutropenia duration: 5.4
[2]; 1 mg/kg 24 h prior to irradiation, 95% CI 1.16-2.54
  DRF value: 1.42
[2]; 1 mg/kg 24 h prior to irradiation, LD50/30
  LD50 value (radiation dose) for RWJ-800088 treated animals: 12.64 Gy
[2]; [5]
  # Surviving (6 months): 10/10
  # Surviving (12 months): 5/5
  # Surviving (30 days): 24/24
[2]; [6]
  # Surviving (6 months): 10/10
  # Surviving (12 months): 5/5
  # Surviving (30 days): 22/24
[2]; [7]
  # Surviving (12 months): 0/3
  # Surviving (30 days): 11/24
[2]; Group 12, 12.5 Gy, two animals were added from 12 Gy
  # Surviving (6 months): 7/10
[3]
  Effects: Protection of vascular size
[4]; Rhesus, whole body irradiation, 30 mg/kg, whole wrapped cell: Enhanced survival, mitigation of thrombocytopenia, anemia
  Effects: Enhanced survival,
[4]; irradiated animals, 30 mg/kg 24 hours post-TBI (FIG. 18B-D)
  decrease in RBC, reticulocytes and WBC vs irradiated vehicle: less severe decrease
[4]; sham or irradiated animals, 30 mg/kg 24 hours post-TBI (FIG. 18A)
  platelet counts, nadir and recovery: beneficial effects on platelet counts
[4]; single dose 30 mg/kg 24 hours post TBI 600 cGY, n=10/group (FIG. 17)
  survival (animals surviving): 9/10
